Article PMC6380468, “Investigations on small molecule inhibitors targeting the histone H3K4 tri-methyllysine binding PHD-finger of JmjC histone demethylases” (Bioorganic & Medicinal Chemistry, 2018)

Experiments:
KDM7C(PHD) = biological target: T1, KDM7C(PHD) (Homo sapiens, UniProt O75151); test: AlphaScreen displacement of H3K4me3-Bn from His-KDM7C(PHD); assay type: binding; details: AlphaScreen; 25 nM KDM7C(PHD) and 6.25 nM peptide; n ≥ 3; read-out: IC50 for displacement of H3K4me3-Bn from His-KDM7C(PHD)
T1 construct: made in house
T1 sequence (O75151 5-56 limits assumed): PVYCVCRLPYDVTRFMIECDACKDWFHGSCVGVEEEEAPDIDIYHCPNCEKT
Experimental: (§1) For peptide displacement assays, 5 µL of the inhibitor dilution series (at a concentration of 4% DMSO in AlphaScreen assay buffer) was pre-incubated with 5 µL of the protein at RT for 15 minutes. Peptide solution (5 µL) was added and incubated for 30 minutes at RT, followed by the addition of 5 µL of a mixture of AlphaScreen Streptavidin donor beads and Nickel Chelate acceptor beads in AlphaScreen assay buffer (20 µg/mL final). The contents were incubated for 60-120 minutes at RT in the dark, followed by measurement of luminescence on a BMG Labtech Pherastar plate reader (Software Ver. 5.30 R3, Firmware Ver. 1.21). The data was plotted in Prism Ver 7.01 (GraphPad Software, Inc.) and fitted to a Log(inhibitor) v/s response – variable slope model in order to obtain IC50 values.

KDM7A (PHD-JmjC) [1] = biological target: KDM7A (PHD-JmjC) (Homo sapiens, UniProt Q6ZMT4); test: AlphaScreen displacement of H3K4me3-Bn from His-KDM7A(PHD-JmjC); assay type: binding; details: AlphaScreen displacement of H3K4me3-Bn; n = 3; NI = No inhibition seen at 100 μM; read-out: IC50 KDM7A (PHD-JmjC) (Displacement)
KDM7A (PHD-JmjC) (Homo sapiens, UniProt Q6ZMT4), sequence (Q6ZMT4 37-386 limits assumed): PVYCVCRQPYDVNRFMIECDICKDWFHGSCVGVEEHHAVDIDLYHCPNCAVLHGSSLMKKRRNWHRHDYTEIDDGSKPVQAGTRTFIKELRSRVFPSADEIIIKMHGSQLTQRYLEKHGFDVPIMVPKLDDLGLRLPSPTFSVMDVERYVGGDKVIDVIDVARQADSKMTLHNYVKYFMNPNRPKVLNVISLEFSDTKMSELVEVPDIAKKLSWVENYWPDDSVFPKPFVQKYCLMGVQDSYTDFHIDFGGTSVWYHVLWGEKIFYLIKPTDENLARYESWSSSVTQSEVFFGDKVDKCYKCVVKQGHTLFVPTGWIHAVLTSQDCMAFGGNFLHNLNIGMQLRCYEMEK
Experimental: (§2) A dual-domain construct of KDM7A/B(PHD-JmjC), consisting of a JmjC domain in addition to the PHD-finger (Fig. 1B), was used to test for allosteric inhibition through binding at the PHD-finger.
as §1

KDM7B (PHD-JmjC) = biological target: T2, KDM7B (PHD-JmjC) (Homo sapiens, UniProt Q9UPP1); test: AlphaScreen displacement of H3K4me3-Bn from His-KDM7B(PHD-JmjC); assay type: binding; details: AlphaScreen displacement of H3K4me3-Bn; n = 3; NI = No inhibition seen at 100 μM; read-out: IC50 KDM7B (PHD-JmjC) (Displacement)
T2 construct: A dual-domain construct of KDM7A/B(PHD-JmjC), consisting of a JmjC domain in addition to the PHD-finger; His; made in house
T2 sequence (Q9UPP1 37-483 limits assumed): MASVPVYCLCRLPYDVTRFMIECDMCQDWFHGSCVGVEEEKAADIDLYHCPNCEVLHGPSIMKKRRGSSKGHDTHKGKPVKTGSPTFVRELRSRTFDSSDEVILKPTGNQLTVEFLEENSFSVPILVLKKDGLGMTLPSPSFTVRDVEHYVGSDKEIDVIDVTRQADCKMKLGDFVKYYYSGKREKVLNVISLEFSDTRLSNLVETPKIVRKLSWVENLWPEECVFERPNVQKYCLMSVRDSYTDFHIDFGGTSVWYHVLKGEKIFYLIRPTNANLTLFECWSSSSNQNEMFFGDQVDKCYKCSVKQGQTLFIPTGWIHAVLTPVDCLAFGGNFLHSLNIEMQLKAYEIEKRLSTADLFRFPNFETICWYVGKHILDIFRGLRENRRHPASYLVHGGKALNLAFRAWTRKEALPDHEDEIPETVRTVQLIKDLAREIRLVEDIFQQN
Experimental: as §2, §1

KDM7A (PHD-JmjC) [2] = test: MALDI-TOF MS H3K9me2 demethylation assay, KDM7A(PHD-JmjC); assay type: biochemical, human; details: at 100 µM, substrate H3(1–15)K9me2
Experimental: Final concentrations were: 1mM ascorbate, 50 µM (NH4)2Fe(II)(SO4)2 and 200 µM 2OG. The mixture was quenched using formic acid after 10 minutes (KDM7A) or 5 minutes (KDM7B).

KDM5A_c2 = biological target: T3, KDM5A_c2 (Homo sapiens, UniProt P29375); test: Formaldehyde dehydrogenase (FDH) enzyme-coupled fluorescence assay, kinetic analysis; assay type: biochemical
T3 sequence (P29375 with tags, fused parts or gaps): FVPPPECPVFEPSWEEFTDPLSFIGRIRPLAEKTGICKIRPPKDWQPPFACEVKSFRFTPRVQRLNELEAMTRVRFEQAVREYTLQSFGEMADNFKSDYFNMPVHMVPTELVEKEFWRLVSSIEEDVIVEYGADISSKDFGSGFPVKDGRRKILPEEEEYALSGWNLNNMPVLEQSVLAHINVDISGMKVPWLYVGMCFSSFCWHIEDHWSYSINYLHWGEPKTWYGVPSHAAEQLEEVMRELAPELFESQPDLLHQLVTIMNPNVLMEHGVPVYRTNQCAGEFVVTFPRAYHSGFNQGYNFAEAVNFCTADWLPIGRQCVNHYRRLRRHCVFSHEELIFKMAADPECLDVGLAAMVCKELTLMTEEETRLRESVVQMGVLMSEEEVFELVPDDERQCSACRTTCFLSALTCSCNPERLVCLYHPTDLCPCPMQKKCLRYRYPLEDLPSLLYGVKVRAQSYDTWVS
Experimental: Enzyme mixture (25 µL) containing KDM5A-c2 (0.5 µM) and FDH (2.0 µM) in FDH buffer [50mM HEPES (50 mM), Tween20 (0.1%), NaCl (50 mM), pH 7.5 in MQ)] was prepared and aliquoted in a 384-well flat-bottom microplate (µClear, Greiner). The peptide mixture (25 µL) [ascorbate (2 mM), (NH4)2Fe(II)(SO4)2 (100 µM), 2OG (400 µM), H3(1-21)K4me3 peptide (ranging from 0 to 100 µM), β-NAD (500 µM), 2a (0 to 160 µM, in DMSO (2% final in this solution)) in FDH buffer] was added to initiate the reaction and the fluorescence was monitored (every 30 seconds over 25 min at 25.0 °C) using the PHERAstar (BMG LABTECH). The initial rates at each peptide concentrations were used to generate the Michaelis-Menten plots. Combined datasets from two independent experiments were globally fitted to a mixed inhibition model using Prism Ver 7.01, and Ki and α values were determined. Lineweaver-Burk plots were also generated using Prism Ver 7.01

[3] = KDM5A_c2, mixed inhibition model, with respect to H3K4me3 substrate, N=2

| IC50 (KDM7C(PHD)) | IC50 (KDM7A (PHD-JmjC) [1]) | IC50 (KDM7B (PHD-JmjC)) | substrate of KDM5A_c2 (formaldehyde production in the absence of H3K4me3) (KDM5A_c2; FDH coupled assay, no H3K4me3) | mode of inhibition with respect to H3K4me3 (KDM5A_c2; KDM5A_c2, Lineweaver-Burk plots) | Ki (KDM5A_c2; [3]) | α (KDM5A_c2; [3]) | Structure (SMILES) | KDM7A (PHD-JmjC) (Catalytic), inhibition of H3K9me2 demethylation (KDM7A (PHD-JmjC) [2]) |
| --- | --- | --- | --- | --- | --- | --- | --- | --- |
| 158 ± 30 µM | 295 ± 48 µM | > 100 µM | – | – | – | – | CCCCc1oc2ccccc2c1C(=O)c1ccc(OCCCN(C)C)cc1 [Compound 1a, (2-Butylbenzofuran-3-yl)(4-(3-(dimethylamino)propoxy)phenyl)methanone] | 100% (100 µM) |
| 579 ± 87 µM | 149 ± 32 µM | 120 ± 32 µM | not a substrate | non-competitive | 74 ± 28 µM | 1.64 ± 0.85 | CCCCc1oc2ccccc2c1C(=O)c1ccc(OCCC[N+](C)(C)C)cc1.[I-] [Compound 2a, 3-(4-(2-Butylbenzofuran-3-carbonyl)phenoxy)-N,N,N-trimethylpropan-1-aminium iodide] | 100% (100 µM) |
